For series [1], the system named is HBV replication in HepG2.2.15 cells. In words: Anti-HBV activity in vitro in HepG2.2.15 cells (extracellular HBV DNA by qPCR). It is filed as cell-based. Particulars: read-out: EC50. From the text:
HepG2.2.15 and HepDE19 are stably-transfected cell lines containing the HBV genome. Both cell lines are derived from the hepatoblastoma cell line Hep G2 (American Type Culture Collection, ATCC® HB-8065™) by the published procedures described in references: M A Selles et al. Proc. Natl. Acad. Sci. USA 1987, 84, 1005-1009 and H Guo et al. Journal of Virology 2007, 81, 12472-12484, respectively. Both cell lines were maintained in Dulbecco's modified Eagle's medium (DMEM)-F12 medium supplemented with 10% fetal bovine serum, 100 U/mL penicillin, 100 μg/mL streptomycin, and 0.5 mg/mL of G418.
While HepG2.2.15 cells constitutively support HBV replication and production of virus particles, HepDE19 cells are inducible by tetracycline. Addition of 1 μg/mL tetracycline in culture medium suppresses HBV replication in HepDE19 cells, whereas switching to tetracycline-free medium resumes this process.
HepG2.2.15 cells were seeded into 96-well plates (3×10^4 cells in 100 μL media per well) and incubated overnight at 37° C. The test compounds were serially half-log diluted in DMSO, then diluted 100 times in culture media. 100 μL diluted compounds were added into the plates to reach 0.5% final concentration of DMSO in every well. Five days after compound treatment, culture supernatant was collected for further analysis.
For quantitative PCR detection of extracellular HBV DNA, 100 μL culture supernatant was collected and processed in MagNA Pure 96 Nucleic Acid Purification System (Roche Applied Science) for viral DNA extraction. The extracted samples were subjected to HBV DNA quantification by qPCR. The effective compound concentration at which HBV replication is inhibited by 50% (EC50) was determined.
The Examples were tested in the above assays as described herein and found to have EC50<1 μM in HepG2.2.15 assay.
(In general: Real-time PCR tracks product formation cycle by cycle.)

Series [2] in a line: Human microsomal clearance assay. It is filed as in vitro ADME. How it is done:
Microsomes were preincubated with test compound for 10 minutes at 37° C. in 100 mM phosphate buffer with pH 7.4. The reactions were initiated by adding NADPH regenerating system to give a final incubation volume of 400 μL. The incubations finally contained 1 μM test compound, 0.5 mg/mL liver microsomal protein, 3.0 mM glucose 6-phosphate, 1.0 mM NADP, 3.0 mM MgCl2 and 0.05 mg/mL glucose 6-phosphate dehydrogenase in 100 mM phosphate buffer with pH 7.4. After incubation times of 0, 3, 6, 9, 15 and 30 minutes, 50 μL, incubation was transferred to the quench solution containing the internal standard which was 2 μM tolbutamide. After precipitation and centrifugation, test compound concentrations in the samples were determined by LC-MS/MS. Controls of no NADPH regenerating system at zero and 30 minutes were also prepared and analyzed.

The mark [3] stands for this setting: Hepatitis B virus, HepG2.2.15, Anti-HBV activity in HepG2.2.15 cells.

Like-named read-outs stand apart in the source and are kept apart here.

As a reminder, the EC50 is the concentration that produces a half-maximal response. `COC(=O)C1=C(CN2C3COCC2CN(C(N)=O)C3)NC(c2nccs2)=N[C@H]1c1ccc(F)cc1Cl` [Example 18, (R)-6-(7-Carbamoyl-3-oxa-7,9-diaza-bicyclo[3.3.1]non-9-ylmethyl)-4-(2-chloro-4-fluoro-phenyl)-2-thiazol-2-yl-1,4-dihydro-pyrimidine-5-carboxylic acid methyl ester]: the EC50 in series [1] (setting [3]) came out at 0.02 µM. In addition, the CLh in series [2] (human, 1 μM, pH 7.4) was 1.3 mL/min/kg.
The corresponding values for `COC(=O)C1=C(CN2[C@H]3C[C@@H](CC(=O)O)C[C@@H]2C(F)(F)C3)NC(c2nccs2)=N[C@H]1c1ccccc1Cl` [Example 91, 2-[(1S,3R,5R)-8-[[(4R)-4-(2-chlorophenyl)-5-methoxycarbonyl-2-thiazol-2-yl-1,4-dihydropyrimidin-6-yl]methyl]-6,6-difluoro-8-azabicyclo[3.2.1]octan-3-yl]acetic acid] are 0.0907 µM and 5.1 mL/min/kg.
For `COC(=O)C1=C(CN2[C@@H]3COC[C@H]2[C@H](F)[C@@H](CC(=O)O)C3)NC(c2nccs2)=N[C@H]1c1cccc(F)c1Cl` [Example 100, 2-[(1S,5S,6R,7R)-9-[[(4R)-4-(2-chloro-3-fluoro-phenyl)-5-methoxycarbonyl-2-thiazol-2-yl-1,4-dihydropyrimidin-6-yl]methyl]-6-fluoro-3-oxa-9-azabicyclo[3.3.1]nonan-7-yl]acetic acid] the same measures were 0.283 µM and 0 mL/min/kg.
For `COC(=O)C1=C(CN2[C@H]3C[C@H](CC(=O)O)C[C@@H]2C(F)(F)C3)NC(c2nccs2)=N[C@H]1c1ccc(F)cc1Cl` [Example 110, 2-[(1S,3S,5R)-8-[[(4R)-4-(2-chloro-4-fluoro-phenyl)-5-methoxycarbonyl-2-thiazol-2-yl-1,4-dihydropyrimidin-6-yl]methyl]-6,6-difluoro-8-azabicyclo[3.2.1]octan-3-yl]acetic acid] the same measures were 0.0443 µM and 4.1 mL/min/kg.
In the case of `COC(=O)C1=C(CN2[C@H]3C[C@@H](CC(=O)O)C[C@@H]2C(F)(F)C3)NC(c2nccs2)=N[C@H]1c1cccc(F)c1Cl` [Example 89, 2-[(1S,3R,5R)-8-[[(4R)-4-(2-chloro-3-fluoro-phenyl)-5-methoxycarbonyl-2-thiazol-2-yl-1,4-dihydropyrimidin-6-yl]methyl]-6,6-difluoro-8-azabicyclo[3.2.1]octan-3-yl]acetic acid], the EC50 in series [1] (setting [3]) amounted to 0.0305 µM. Further, the CLh in series [2] (human, 1 μM, pH 7.4) stood at 0 mL/min/kg.
The corresponding values for `COC(=O)C1=C(CN2[C@H]3C[C@@H](CC(=O)O)C[C@@H]2C(F)(F)C3)NC(c2nccs2)=N[C@H]1c1cccc(F)c1Br` [Example 95, 2-[(1S,3R,5R)-8-[[(4R)-4-(2-bromo-3-fluoro-phenyl)-5-methoxycarbonyl-2-thiazol-2-yl-1,4-dihydropyrimidin-6-yl]methyl]-6,6-difluoro-8-azabicyclo[3.2.1]octan-3-yl]acetic acid] are 0.0311 µM and 0 mL/min/kg.
The corresponding values for `CCOC(=O)C1=C(CN2C3COCC2C(F)(F)[C@@H](CC(=O)O)C3)NC(c2nccs2)=N[C@H]1c1cccc(F)c1Cl` (stereo partly drawn) [Example 129, 2-[(7R)-9-[[(4R)-4-(2-chloro-3-fluoro-phenyl)-5-ethoxycarbonyl-2-thiazol-2-yl-1,4-dihydropyrimidin-6-yl]methyl]-6,6-difluoro-3-oxa-9-azabicyclo[3.3.1]nonan-7-yl]acetic acid] are 0.021 µM and 2.0 mL/min/kg.
For `COC(=O)C1=C(CN2C3COCC2CN(C(=O)CO)C3)NC(c2nccs2)=N[C@H]1c1ccc(F)cc1Cl` [Example 21, (R)-4-(2-Chloro-4-fluoro-phenyl)-6-[7-(2-hydroxy-acetyl)-3-oxa-7,9-diaza-bicyclo[3.3.1]non-9-ylmethyl]-2-thiazol-2-yl-1,4-dihydro-pyrimidine-5-carboxylic acid methyl ester] the same measures were 0.02 µM and 4.3 mL/min/kg.
For the compound `CCOC(=O)C1=C(CN2C3COCC2C(F)(F)[C@@H](CC(=O)O)C3)NC(c2nccs2)=N[C@H]1c1ccc(F)c(F)c1C` (stereo partly drawn) [Example 127, 2-[(7R)-9-[[(4S)-4-(3,4-difluoro-2-methyl-phenyl)-5-ethoxycarbonyl-2-thiazol-2-yl-1,4-dihydropyrimidin-6-yl]methyl]-6,6-difluoro-3-oxa-9-azabicyclo[3.3.1]nonan-7-yl]acetic acid], the EC50 in series [1] (setting [3]) came to 0.0161 µM. In series [2] (human, 1 μM, pH 7.4), this compound showed a CLh of 2.9 mL/min/kg.
For “2-[(1R,5R,7S)-9-[[(4S)-4-(3,4-difluoro-2-methyl-phenyl)-5-methoxycarbonyl-2-thiazol-2-yl-1,4-dihydropyrimidin-6-yl]methyl]-6,6-difluoro-3-oxa-9-azabicyclo[3.3.1]nonan-7-yl]acetic acid or 2-[(1S,5S,7R)-9-[[(4S)-4-(3,4-difluoro-2-methyl-phenyl)-5-methoxycarbonyl-2-thiazol-2-yl-1,4-dihydropyrimidin-6-yl]methyl]-6,6-difluoro-3-oxa-9-azabicyclo[3.3.1]nonan-7-yl]acetic acid [Example 132]”, in series [1] (Anti-HBV activity in HepG2.2.15 cells), the EC50 worked out at 0.0103 µM. Moreover, in series [2] (human microsomal clearance), the CLh was 2.6 mL/min/kg.
Consider `COC(=O)C1=C(CN2[C@@H]3C[C@H](CC(=O)O)C[C@H]2C(F)(F)C3)NC(c2nccs2)=N[C@H]1c1cccc(F)c1Br` [Example 94, 2-[(1R,3S,5S)-8-[[(4R)-4-(2-bromo-3-fluoro-phenyl)-5-methoxycarbonyl-2-thiazol-2-yl-1,4-dihydropyrimidin-6-yl]methyl]-6,6-difluoro-8-azabicyclo[3.2.1]octan-3-yl]acetic acid], for which the EC50 in series [1] (setting [3]) was found to be 0.0217 µM. The same compound had a CLh in series [2] (human, 1 μM, pH 7.4) of 0 mL/min/kg.
The corresponding values for `CCOC(=O)C1=C(CN2[C@H]3C[C@@H](CC(=O)O)C[C@@H]2C(F)(F)C3)NC(c2nccs2)=N[C@H]1c1ccccc1Br` [Example 93, 2-[(1S,3R,5R)-8-[[(4R)-4-(2-bromophenyl)-5-ethoxycarbonyl-2-thiazol-2-yl-1,4-dihydropyrimidin-6-yl]methyl]-6,6-difluoro-8-azabicyclo[3.2.1]octan-3-yl]acetic acid] are 0.0289 µM and 0.2 mL/min/kg.
For `CCOC(=O)C1=C(CN2[C@@H]3C[C@H](CC(=O)O)C[C@H]2C(F)(F)C3)NC(c2nccs2)=N[C@H]1c1cccc(F)c1Cl` [Example 98, 2-[(1R,3S,5S)-8-[[(4R)-4-(2-chloro-3-fluoro-phenyl)-5-ethoxycarbonyl-2-thiazol-2-yl-1,4-dihydropyrimidin-6-yl]methyl]-6,6-difluoro-8-azabicyclo[3.2.1]octan-3-yl]acetic acid], the EC50 in series [1] (setting [3]) worked out at 0.0007 µM. This compound had a CLh in series [2] (human, 1 μM, pH 7.4) of 4.5 mL/min/kg.
For the compound `COC(=O)C1=C(CN2[C@@H]3C[C@H](CC(=O)O)C[C@H]2C(F)(F)C3)NC(c2nccs2)=N[C@H]1c1ccc(Cl)c(F)c1` [Example 96, 2-[(1R,3S,5S)-8-[[(4S)-4-(4-chloro-3-fluoro-phenyl)-5-methoxycarbonyl-2-thiazol-2-yl-1,4-dihydropyrimidin-6-yl]methyl]-6,6-difluoro-8-azabicyclo[3.2.1]octan-3-yl]acetic acid], in series [1] (setting [3]), the EC50 worked out at 0.0068 µM. This compound also displayed a CLh in series [2] (human, 1 μM, pH 7.4) of 1.8 mL/min/kg.
The corresponding values for `COC(=O)C1=C(CN2[C@H]3C[C@@H](CC(=O)O)C[C@@H]2C(F)(F)C3)NC(c2nccs2)=N[C@H]1c1ccc(F)cc1Cl` [Example 87, 2-[(1S,3R,5R)-8-[[(4R)-4-(2-chloro-4-fluoro-phenyl)-5-methoxycarbonyl-2-thiazol-2-yl-1,4-dihydropyrimidin-6-yl]methyl]-6,6-difluoro-8-azabicyclo[3.2.1]octan-3-yl]acetic acid] are 0.0394 µM and 0 mL/min/kg.
